Measurements taken from patent US4067997A, “Synergistic microbecidal composition and method” (priority 1976, dated 1978).

Experiments:
Type in all cases: cell-based
[1] = test system: nine gram-positive organisms and the yeast/fungus Candida; experiment: MIC, broth dilution, over all organisms (Examples I/II); conditions: all except streptococcus Group D; from essentially as active up to
Description: In order to establish comparative bactericidal and fungicidal results with homologous fatty acids, a series of experiments was performed with thirty straight-chain fatty acids and derivatives thereof. Eight different gram-negative and twelve different gram-positive organisms, representing a very broad spectrum of organisms, were used in these experiments including the fungus Candida (a yeast). Additionally, fatty acids were chosen to show the effects of saturation versus unsaturation, in the fatty acid claim. Standard solutions of the fatty acids and their derivatives were prepared by first dissolving the weighed compounds in 1 to 2 ml of 95% ethanol and immediately pouring this solution into 200 ml of Tripticase Soy Broth. These lipid compounds which are insoluble in water and broth precipitated into very small crystals or droplets. The tubes containing the suspension were warmed to approximately 70° C and were then placed in an ultrasonic tank for further solubilization of the lipid derivatives.
Standard solutions (or suspensions) at 1,000 μg/ml were twofold serially diluted with additional broth to a concentration of 125 μg/ml. A 4-ml amount of each dilution was then quickly, and with constant agitation, dispensed into appropriately labeled screw-capped glass tubes (16 by 125 mm). The tubes were sterilized with steam at 15 psi for 15 minutes. After sterilization, all tubes were cooled and incubated overnight at 35° C to insure sterility.
All compounds were compared on a molar (micromoles/milliliter) rather than on a mass basis. In the following lists of organisms used, those followed by a parenthetical number are registered with the American Type Culture Collection (ATCC); the remainder were isolates from Providence Hospital or Northland Laboratory.
Staphylococcus aureus, S. epidermidis, beta-hemolytic streptococci (Group A and non-group A), group D streptococcus, Bacillus subtilis (6051), Sarcina lutea (9431), Micrococcus sp., Candida albicans, Nocardia asteroids (3308), Corynebacterium sp. (10700), and pneumococcus (63001).
One drop (0.04 ± 0.01 ml) of an 18-hr broth culture containing 10^7 and 10^9 organisms/ml was added to each dilution of the test compound, as well as to a tube of plain broth which served as the positive control. After inoculation, the contents of each tube were well mixed, and the tubes were incubated at 35° C in a 5% carbon dioxide + […] atmosphere.
The MIC is defined as the lowest concentration of compound at which no […] evidence of growth was observed when turbidity of the inoculated broth dilutions was compared with control tubes. […] Only a one-tube difference between the bactericidal and bacteriostatic concentrations was normally observed.
Table 5 presents a comparison of the C10 and C12 free acids and their glyceryl derivatives, and Table 6 gives the corresponding ranges of activity.
Standard solutions (1000 μg/ml) of three fatty acids and polyglycerol esters thereof were prepared as described in Example I. Also sucrose esters were prepared by transferring the weighed compounds (0.2 gm. dissolved in 1 ml absolute methanol) into 200 ml of sterile Trypticase Soy Broth (TSB). These standard solutions (1000 μg/ml) were twofold serially diluted with additional sterile broth to a concentration of 125 μg/ml. A 3.8 aliquot of each dilution was asceptically delivered into sterile screw-capped culture tubes. All tubes were incubated overnight at 36° C to insure sterility. The microorganisms used in this example were the same as those used in Example I.
The inoculum, 0.05 ml of an 13-24 hour TSB culture (approximately 10^9 organisms/ml) was asceptically delivered into all dilutions of the compounds, mixed well, and incubated at 36° C. […]

Streptococcus pyogenes = experiment: MIC on mass basis (Example V procedure)
Description: (§1) The essential procedure of Example I was followed with a series of phenolic compounds, with the exception that the test method was conducted on a mass (μg/ml) basis rather than a molecular (mol/ml) basis of the foregoing tests, since the long established phenol-coeffecient test is on a mass rather than molecular basis. Additionally, a different but closely related group of organisms were used in this test, in order to give a complete representative span on gram-negative, gram-positive and fungus organisms. Additionally, the phenolic derivatives chosen for test purposes include a number of derivatives which are presently accepted by the FDA as food-grade phenolic microbicides.

[2] = test system: Streptococcus faecalis (Group D); experiment: MIC on mass basis (Example V procedure)
Description: as §1

Corynebacterium sp. = experiment: MIC on mass basis (Example V procedure)
Description: as §1

Pseudomonas aeruginosa = experiment: MIC on mass basis (Example V procedure)
Description: as §1
(§2) The same procedure of Example V was repeated but with combinations of mono-laurin (GML).
(§3) The procedure of Example V was repeated with combinations of glycerol mono-laurin (GML) and ethylenediamine tetraacetic acid (EDTA) as the calcium salt and in combination with BHA.

Streptococcus agalactiae = experiment: MIC on mass basis (Example V procedure)
Description: as §1, §2, §3

Saccharomyces cerevisiae = experiment: MIC on mass basis (Example V procedure)
Description: as §1, §2, §3

Candida albicans = experiment: MIC on mass basis (Example V procedure)
Description: as §1, §2, §3

[3] = 60 minute reading, colony forming units (Examples VIII, X, XII); conditions: Table 18; base line 2.2 × 10^6CFU
Description: The results of this experiment are recorded in the 60 minute reading.

For CCCCCCCCCCCC(=O)OCC(O)CO (stereo not shown) [GML, glycerol mono-laurin], the “Activity of mono-laurin relative to mono-capric” value [1] was at most 5.5 times, the MIC (Streptococcus pyogenes; Table 16, Streptococcus pyogenes, no unit in table) was 10 and the “MIC of GML” value (Streptococcus pyogenes; Table 17, EDTA 0) was under 10 µg/mL. For the same compound, the “MIC of GML” value (Streptococcus pyogenes; Table 17, EDTA 125) was under 10 µg/mL, the “MIC of GML” value (Streptococcus pyogenes; Table 17, EDTA 250) was under 10 µg/mL and the “MIC of GML” value (Streptococcus pyogenes; Table 17, EDTA 500) was under 10 µg/mL. The “MIC of GML” value (Streptococcus pyogenes; Table 17, EDTA 1,000) was under 10 µg/mL, the “MIC of GML” value (Streptococcus pyogenes; Table 17, EDTA 5,000) was under 10 µg/mL and the “MIC of GML” value (Streptococcus pyogenes; Table 17, EDTA 10,000) was under 10 µg/mL. The MIC ([2]; Table 16, Streptococcus faecalis (Group D), no unit in table) was > 1,000, the “MIC of GML” value ([2]; Table 17, EDTA 0) was > 10,000 μg/ml and the “MIC of GML” value ([2]; Table 17, EDTA 125) was > 10,000 μg/ml. The “MIC of GML” value ([2]; Table 17, EDTA 250) was > 10,000 μg/ml, the “MIC of GML” value ([2]; Table 17, EDTA 500) was > 10,000 μg/ml and the “MIC of GML” value ([2]; Table 17, EDTA 1,000) was 1,000 μg/ml. The “MIC of GML” value ([2]; Table 17, EDTA 5,000) was under 10 µg/mL, the “MIC of GML” value ([2]; Table 17, EDTA 10,000) was under 10 µg/mL and the MIC (Corynebacterium sp.; Table 16, Corynebacterium sp., no unit in table) was 10. The “MIC of GML” value (Corynebacterium sp.; Table 17, EDTA 0) was under 10 µg/mL, the “MIC of GML” value (Corynebacterium sp.; Table 17, EDTA 125) was under 10 µg/mL and the “MIC of GML” value (Corynebacterium sp.; Table 17, EDTA 250) was under 10 µg/mL. The “MIC of GML” value (Corynebacterium sp.; Table 17, EDTA 500) was under 10 µg/mL, the “MIC of GML” value (Corynebacterium sp.; Table 17, EDTA 1,000) was under 10 µg/mL and the “MIC of GML” value (Corynebacterium sp.; Table 17, EDTA 5,000) was under 10 µg/mL. For the same compound, the “MIC of GML” value (Corynebacterium sp.; Table 17, EDTA 10,000) was under 10 µg/mL, the MIC (Pseudomonas aeruginosa; Table 13, Pseudomonas aeruginosa) was > 1,000 μg/ml and the MIC (Pseudomonas aeruginosa; Table 14, Pseudomonas aeruginosa) was > 1,000 μg/ml. The MIC (Pseudomonas aeruginosa; Table 16, Pseudomonas aeruginosa, no unit in table) was > 1,000, the “MIC of GML” value (Pseudomonas aeruginosa; Table 17, EDTA 0) was > 10,000 μg/ml and the “MIC of GML” value (Pseudomonas aeruginosa; Table 17, EDTA 125) was > 10,000 μg/ml. For the same compound, the “MIC of GML” value (Pseudomonas aeruginosa; Table 17, EDTA 250) was > 10,000 μg/ml, the “MIC of GML” value (Pseudomonas aeruginosa; Table 17, EDTA 500) was > 10,000 μg/ml and the “MIC of GML” value (Pseudomonas aeruginosa; Table 17, EDTA 1,000) was > 10,000 μg/ml. The “MIC of GML” value (Pseudomonas aeruginosa; Table 17, EDTA 5,000) was 100 µg/mL, the “MIC of GML” value (Pseudomonas aeruginosa; Table 17, EDTA 10,000) was under 10 µg/mL and the MIC (Streptococcus agalactiae; Table 13, Streptococcus agalactiae) was 15.60 µg/mL. For the same compound, the MIC (Streptococcus agalactiae; Table 14, Streptococcus agalactiae) was 31.25 µg/mL, the MIC (Saccharomyces cerevisiae; Table 13, Saccharomyces cerevisiae) was < 1,000 μg/ml and the MIC (Saccharomyces cerevisiae; Table 14, Saccharomyces cerevisiae) was 1,000 μg/ml. For the same compound, the MIC (Saccharomyces cerevisiae; Table 16, Saccharomyces cerevisiae, no unit in table) was 1,000, the “MIC of GML” value (Saccharomyces cerevisiae; Table 17, EDTA 0) was 1,000 μg/ml and the “MIC of GML” value (Saccharomyces cerevisiae; Table 17, EDTA 125) was 500 µg/mL. For the same compound, the “MIC of GML” value (Saccharomyces cerevisiae; Table 17, EDTA 250) was 100 µg/mL, the “MIC of GML” value (Saccharomyces cerevisiae; Table 17, EDTA 500) was 100 µg/mL and the “MIC of GML” value (Saccharomyces cerevisiae; Table 17, EDTA 1,000) was under 10 µg/mL. For the same compound, the “MIC of GML” value (Saccharomyces cerevisiae; Table 17, EDTA 5,000) was under 10 µg/mL, the “MIC of GML” value (Saccharomyces cerevisiae; Table 17, EDTA 10,000) was under 10 µg/mL and the MIC (Candida albicans; Table 13, Candida albicans) was > 1,000 μg/ml. The MIC (Candida albicans; Table 14, Candida albicans) was > 1,000 μg/ml, the MIC (Candida albicans; Table 16, Candida albicans, no unit in table) was > 1,000 and the “MIC of GML” value (Candida albicans; Table 17, EDTA 0) was > 10,000 μg/ml. The “MIC of GML” value (Candida albicans; Table 17, EDTA 125) was 500 µg/mL, the “MIC of GML” value (Candida albicans; Table 17, EDTA 250) was 500 µg/mL and the “MIC of GML” value (Candida albicans; Table 17, EDTA 500) was 100 µg/mL. For the same compound, the “MIC of GML” value (Candida albicans; Table 17, EDTA 1,000) was 100 µg/mL, the “MIC of GML” value (Candida albicans; Table 17, EDTA 5,000) was 100 µg/mL and the “MIC of GML” value (Candida albicans; Table 17, EDTA 10,000) was 100 µg/mL. The “60 Minute Reading” value [3] was 9.7 × 10^5 CFU.
